Consider one molecule from PMC9430770 (Microbiology Spectrum, 2022).

For test [1], the system named is C. albicans SC5314. The experiment in a line: Spot assay on solid YPD or YPG plates containing BE. To be noted: 48 h, 30°C. Type of test: cell-based, Candida albicans. The procedure:
To test whether BE antifungal activity in C. albicans as well as in mammalian cells was carbon source dependent ([27]), we investigated the activity of BE in spot assays on both solid yeast extract-peptone-dextrose (YPD) (containing 20 mg/mL glucose) and solid YPG (containing 2% [vol/vol] glycerol) media.
FIG 1 The antifungal activity of BE depends on the carbon source. The overnight-cultured C. albicans SC5314 cells were diluted to 1 × 10^7 cells/mL and used as the initial concentration for four times of 10-fold dilution. Subsequently, 5 μL of a 10-fold dilution series was spotted onto YPD or YPG solid plates containing the indicated different concentrations of BE. After 48 h of incubation at 30°C, pictures of the growth of cells were taken.
The spotting assay was performed as described previously ([50]). Briefly, after grown overnight, mid-log-phase cultures of strains required for experimental conditions were adjusted to 1 × 10^7 cells/mL using a hemacytometer, then were 1:10 serially diluted in sterile PBS, and were spotted onto indicated plates with an indicated concentration of BE. After 48 h of incubation at 30°C, pictures of the growth of cells were taken.

The target in test [2] is mutant Eno1 (D263A, S269A, and K273A) (Candida albicans, UniProt P30575, D263A/K273A/S269A). The experiment in a line: SPR binding of BE to mutant Eno1. The text has this: SPR, surface plasmon resonance; RU, response unit.
mutant Eno1 (D263A, S269A, and K273A), sequence (P30575 whole entry D263A/S269A/K273A): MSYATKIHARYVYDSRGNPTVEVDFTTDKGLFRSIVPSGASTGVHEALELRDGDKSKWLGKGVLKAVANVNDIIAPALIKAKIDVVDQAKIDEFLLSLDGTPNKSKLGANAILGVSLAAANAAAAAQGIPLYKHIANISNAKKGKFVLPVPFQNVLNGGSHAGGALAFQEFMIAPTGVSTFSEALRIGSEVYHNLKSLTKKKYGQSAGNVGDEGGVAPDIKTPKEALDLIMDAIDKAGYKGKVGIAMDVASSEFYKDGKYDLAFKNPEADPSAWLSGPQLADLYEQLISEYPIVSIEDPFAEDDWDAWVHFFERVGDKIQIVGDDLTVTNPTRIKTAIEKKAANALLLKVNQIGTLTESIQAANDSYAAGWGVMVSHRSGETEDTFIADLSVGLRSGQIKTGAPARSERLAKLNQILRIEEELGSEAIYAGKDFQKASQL
The benzene ring with hydroxyl group can form a cation-π interaction with K273 (Fig. 6C). To confirm that D263, S269, and K273 play crucial roles in interacting with BE, we have mutated these three amino acids (D263A, S269A, and K273A) in CaEno1.

Test [3] relates to C. albicans eno1/eno1 mutant strain. The experiment in a line: Galleria mellonella infection model, eno1/eno1 strain. It counts as in vivo, Candida albicans. The following applies: G. mellonella, 10 mg/kg. The procedure:
To assess whether Eno1 is a therapeutic target of BE, we constructed a homozygous deletion strain for the ENO1 gene (eno1/eno1). We then investigated the difference in the antifungal efficacy of BE on the infections caused by the parent strain SN152 and the eno1/eno1 strain in the Galleria mellonella infection model. We divided the G. mellonella into 5 groups, with 10 larvae in each group. All 10 larvae died after a 24-h infection with the SN152 strain, while only 3 larvae died after 24 h when infected with the eno1/eno1 strain; the remaining larvae died within 7 days. Compared with the group infected with the parent strain, the survival time of the group infected with the eno1/eno1 strain was longer (P < 0.01) (Fig. 4A). […] The survival rate of larvae in the BE (10 mg/kg of body weight)-treated, SN152 strain-infected group was extended by 30%, compared with that in the group infected with the SN152 strain but without antifungal drug treatment (P < 0.001) (Fig. 4B). […] All 10 larvae in the BE-treated group died within 6 days, and all 10 larvae without BE treatment were killed within 7 days (Fig. 4C). However, FLC (10 mg/kg) can extend the survival rate of larvae infected by the eno1/eno1 strain by 60% (P < 0.01) (Fig. 4D) compared with the group infected with the eno1/eno1 strain without antifungal drug treatment.
FIG 4 Eno1 acts as a therapeutic target of BE. […] Each curve represents a group of 10 larvae (n =10) monitored daily for survival for up to 10 days after infection. […]
Virulence testing of C. albicans was done in Galleria mellonella as described previously ([56]). […] After growth in YPD media overnight at 30°C and 200 rpm, C. albicans SN152 cells or eno1/eno1 mutant cells were washed with PBS 3 times and diluted to the desired concentration (1 × 10^7 cells/mL) determined by counting with a hemacytometer. […] The death of G. mellonella was assessed daily and analyzed statistically by the Kaplan-Meier method (log-rank test).

The test system of test [4] is Candida albicans 103. The experiment in a line: Checkerboard microdilution assay with fluconazole. It counts as cell-based. From the text:
Ta b l e S3. Interaction of fluconazole ( FLC) and BE probes against isolates of Candida albicans
Compounds Molecular structure Individual action Interaction MIC(μg/ mL ) FICI Mode of
MIC (μg /mL) FLC Compounds interaction

`O=c1cc(-c2ccccc2)oc2cc(O)c(O)c(O)c12` [BE, Baicalein]: the “antifungal activity (spot assay)” value in test [1] (64 μg/mL BE, solid YPD medium (20 mg/mL glucose)) is recorded as “had antifungal activity”; in test [1] (64 μg/mL BE, solid YPG medium (2% glycerol)) it was “not in solid YPG medium”; in test [1] (128 μg/mL BE, solid YPD medium) it was “potent antifungal activity”. Moreover, in test [1] (128 μg/mL BE, solid YPG medium), the “growth of C. albicans (spot assay)” value is “could still grow”. For the same molecule, the “binding detected by SPR analysis” value in test [2] is reported as “no binding”. Besides, the “survival rate of larvae extended versus infected group without drug treatment” value in test [3] is “no significant effect”. Besides, in test [3] (eno1/eno1-infected), the “time within which all 10 larvae died” value was not above 6 days. In test [4] (MIC of FLC in combination with the compound), the “Interaction MIC FLC” value came to 1 µg/mL. For the same molecule, the “Interaction MIC Compounds” value in test [4] (MIC of the compound in combination with FLC) stood at 1 µg/mL. The FICI in test [4] (combination with FLC) was 0.039. Moreover, the Mode of interaction result in test [4] (combination with FLC, FLC-resistant C. albicans) is reported as “Synergism”. The “Individual action MIC” value in test [4] (compound alone) was found to be 32 µg/mL.
